According to article PMC9312113, “Bioactive Components from Ampelopsis japonica with Antioxidant, Anti-α-Glucosidase, and Antiacetylcholinesterase Activities” (Antioxidants, 2022):
Read-outs that look alike come from different tables or passages of the source.

What was measured:
[1] = ABTS radical scavenging assay; details: n = 3
Method: This assay was assessed using the procedure previously described.

[2] = Ferric reducing antioxidant power (FRAP) assay
Method: The FRAP assay was measured using the procedure previously described.

[3] = DPPH radical scavenging activity; details: n = 3
Method: This assay was determined using the procedure previously reported.

[4] = molecular target: acetylcholinesterase (AChE) (Electrophorus electricus, UniProt O42275); test: biochemical
[5] = Superoxide radical scavenging assay; details: isolated compounds (Table 5); n = 3
Method: This assay was determined by the method previously described.

[6] = solvent extracts (Table 2), concentration causing 50% free radical scavenging
[7] = isolated compounds (Table 5), Trolox equivalents
[8] = isolated components (Table 6), read-out: IC50 AChE (converted)

Chain of acetylcholinesterase (AChE) (O42275 24-633): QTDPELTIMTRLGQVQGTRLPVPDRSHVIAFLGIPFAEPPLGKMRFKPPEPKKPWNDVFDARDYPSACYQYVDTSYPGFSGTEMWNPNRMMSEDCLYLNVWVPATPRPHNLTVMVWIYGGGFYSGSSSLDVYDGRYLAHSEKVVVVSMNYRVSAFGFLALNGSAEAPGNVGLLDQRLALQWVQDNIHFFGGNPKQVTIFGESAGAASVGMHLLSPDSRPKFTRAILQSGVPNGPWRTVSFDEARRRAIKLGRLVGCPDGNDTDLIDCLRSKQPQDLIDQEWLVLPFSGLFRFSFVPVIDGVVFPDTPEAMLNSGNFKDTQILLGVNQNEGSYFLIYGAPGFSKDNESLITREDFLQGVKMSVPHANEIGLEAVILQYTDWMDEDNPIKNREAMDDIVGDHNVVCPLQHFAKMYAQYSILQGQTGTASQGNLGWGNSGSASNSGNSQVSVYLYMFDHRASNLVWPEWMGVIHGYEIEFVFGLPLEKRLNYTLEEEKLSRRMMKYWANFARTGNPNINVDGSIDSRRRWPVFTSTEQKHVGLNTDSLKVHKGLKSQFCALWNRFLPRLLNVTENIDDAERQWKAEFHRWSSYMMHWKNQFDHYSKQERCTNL

Compound | SC50 ABTS ([1]; isolated compounds (Table 5)) | SC50 ABTS [1, 6] | FRAP, TE [2, 7] | FRAP, TE ([2]; solvent extracts (Table 2), millimolar of Trolox equivalents per gram of extract) | SC50 DPPH ([3]; isolated compounds (Table 5)) | SC50 DPPH [3, 6] | IC50 [4, 8] | IC50 ([4]; solvent extracts (Table 3), read-out: IC50 AChE (converted)) | SC50 Superoxide [5] | IC50 [4]
Cc1cc(C(C)(C)C)c(O)c(C(C)(C)C)c1 [BHT, butylated hydroxytoluene, reference compound] | 17.36 ± 3.14 µg/mL | 14.09 ± 0.24 µg/mL | 3997.23 ± 144.35 mM/g | 4257.97 ± 145.90 mM/g | 36.99 ± 4.54 µg/mL | 33.04 ± 2.12 µg/mL |  |  |  | 
O=C(/C=C/c1ccc(O)c(O)c1)O[C@@H]1C[C@](O)(C(=O)O)C[C@@H](O)[C@H]1O [Chlorogenic acid, chlorogenic acid, reference compound] |  |  |  |  |  |  | 182 µM | 188 µM |  | 
Oc1cc(O)c2c(c1)O[C@H](c1ccc(O)c(O)c1)[C@@H](O)C2 [Compound 1, catechin] | 2.23 ± 0.22 µg/mL |  | 8729.33 ± 424.55 mM/g |  | 10.08 ± 3.09 µg/mL |  | 90.8 µM |  | 64.43 ± 7.73 µg/mL | 
O=C(O)c1cc(O)c(O)c(O)c1 [Compound 2, gallic acid] | 1.45 ± 0.14 µg/mL |  | 28,512.82 ± 43.27 mM/g |  | 2.60 ± 0.67 µg/mL |  |  |  | 47.40 ± 3.01 µg/mL | 244 µM
O=c1c(O)c(-c2ccc(O)cc2)oc2cc(O)cc(O)c12 [Compound 3, kaempferol] | 5.24 ± 0.45 µg/mL |  | 7912.47 ± 220.08 mM/g |  | 12.48 ± 3.01 µg/mL |  |  |  |  | 
O=c1c(O)c(-c2ccc(O)c(O)c2)oc2cc(O)cc(O)c12 [Compound 4, quercetin] | 3.15 ± 0.49 µg/mL |  | 16,038.26 ± 86.89 mM/g |  | 3.36 ± 0.58 µg/mL |  |  |  | 31.89 ± 2.03 µg/mL | 
C[C@@H]1CC[C@]2(C(=O)O)CC[C@]3(C)C(=CC[C@@H]4[C@@]5(C)C[C@@H](O)[C@@H](O)C(C)(C)[C@@H]5CC[C@]43C)[C@@H]2[C@]1(C)O [Compound 5, euscaphic acid] | >400 µg/mL |  | 8.67 ± 3.93 mM/g |  | >400 µg/mL |  | 23.8 µM |  | >400 µg/mL | 
Oc1ccc(/C=C/c2cc(O)cc(O)c2)cc1 [Compound 6, resveratrol] |  |  |  |  |  |  |  |  |  | 354 µM
Oc1cc(O)c2c(c1)O[C@H](c1ccc(O)c(O)c1)[C@H](O)C2 [Compound 7, epicatechin] | 3.78 ± 0.03 µg/mL |  | 13,122.77 ± 182.42 mM/g |  | 2.78 ± 0.25 µg/mL |  | 184 µM |  | 41.76 ± 4.20 µg/mL | 
